This note sets out measurements from ChEMBL document CHEMBL1154236, “Monoterpenes from Paeonia albiflora and their inhibitory activity on nitric oxide production by lipopolysaccharide-activated microglia” (J Nat Prod, 2009).

Some results are limits rather than exact numbers.

Holding throughout (conditions): N9, 48 h
Test [1] concerns N9. The test is described as follows: Antiinflammatory activity against mouse N9 cells assessed as LPS-induced nitric oxide production at 3 uM after 48 hrs by Griess reaction relative to control.
Test [2] concerns N9. The test is described as follows: Antiinflammatory activity against mouse N9 cells assessed as LPS-induced nitric oxide production at 1 uM after 48 hrs by Griess reaction relative to control.
In test [3] the test system is N9. The test is described as follows: Antiinflammatory activity against mouse N9 cells assessed as inhibition of LPS-induced nitric oxide production after 48 hrs by Griess reaction relative to control.
The subject of test [4] is N9. The test is described as follows: Antiinflammatory activity against mouse N9 cells assessed as LPS-induced nitric oxide production at 10 uM after 48 hrs by Griess reaction relative to control.
Test [5] concerns N9. In words: Antiinflammatory activity against mouse N9 cells assessed as LPS-induced nitric oxide production at 30 uM after 48 hrs by Griess reaction relative to control.

Regarding `COc1cc(COC[C@H]2O[C@@H](O[C@@]34C[C@H]5[C@@]3(COC(=O)c3ccccc3)[C@H]3O[C@]5(O)C[C@]4(C)O3)[C@H](O)[C@@H](O)[C@@H]2O)ccc1O`, the NO production (% of LPS control) at 3 µM in test [1] is 106%. In test [2], the NO production (% of LPS control) at 1 µM is 107%. For the same compound, the half-maximal inhibitory concentration (IC50) in test [3] was over 100 µM. For the same compound, in test [4], the NO production (% of LPS control) at 10 µM amounted to 99.8%. In test [5], the NO production (% of LPS control) at 30 µM was determined as 90.1%.

Turning to `C[C@@]12C[C@@]3(O)O[C@@H](O1)[C@]1(COC(=O)c4ccccc4)[C@@H]3C[C@]12O[C@@H]1O[C@H](CO[C@H]2O[C@H](CO)[C@@H](O)[C@H](O)[C@H]2O)[C@@H](O)[C@H](O)[C@H]1O`, the NO production (% of LPS control) at 3 µM in test [1] was 91.5%. Moreover, in test [2], the NO production (% of LPS control) at 1 µM was found to be 90.1%. For the same compound, the IC50 in test [3] is over 100 µM. Further, in test [4], the NO production (% of LPS control) at 10 µM was found to be 85.1%. In addition, the NO production (% of LPS control) at 30 µM in test [5] was 70.5%.

For the compound `CO[C@]12C[C@]3(C)O[C@H](O1)[C@]1(COC(=O)c4ccccc4)[C@@H]2C[C@]13O[C@@H]1O[C@H](COC(=O)c2ccccc2)[C@@H](O)[C@H](O)[C@H]1O`, in test [1], the NO production (% of LPS control) at 3 µM was determined as 95.5%. Also, in test [2], the NO production (% of LPS control) at 1 µM was 91.9%. Besides, the IC50 in test [3] is 22.6 µM. The NO production (% of LPS control) at 10 µM in test [4] was 70.4%. The NO production (% of LPS control) at 30 µM in test [5] came out at 34.9%.

`CO[C@]12C[C@]3(C)O[C@H](O1)[C@]1(COC(=O)c4ccccc4)[C@@H]2C[C@]13O[C@@H]1O[C@H](COC(=O)c2cc(O)c(O)c(O)c2)[C@@H](O)[C@H](O)[C@H]1O`: in test [1], the NO production (% of LPS control) at 3 µM came to 113%. For the same compound, the NO production (% of LPS control) at 1 µM in test [2] amounted to 80.8%. Moreover, in test [3], the IC50 is over 100 µM. The NO production (% of LPS control) at 10 µM in test [4] turned out to be 108%. The NO production (% of LPS control) at 30 µM in test [5] was 102%.

On to `CO[C@]12C[C@]3(C)O[C@H](O1)[C@]1(COC(=O)c4ccccc4)[C@@H]2C[C@]13O[C@@H]1O[C@H](CO)[C@@H](O)[C@H](O)[C@H]1O`, for which the NO production (% of LPS control) at 3 µM in test [1] turned out to be 109%. Moreover, in test [2], the NO production (% of LPS control) at 1 µM worked out at 111%. Also, in test [3], the IC50 is over 100 µM. In test [4], the NO production (% of LPS control) at 10 µM came out at 107%. Also, in test [5], the NO production (% of LPS control) at 30 µM came out at 90.4%.

Take `CO[C@]12C[C@]3(C)O[C@H](O1)[C@]1(CO)[C@@H]2C[C@]13O[C@@H]1O[C@H](CO)[C@@H](O)[C@H](O)[C@H]1O`: in test [1], the NO production (% of LPS control) at 3 µM amounted to 104%. In addition, the NO production (% of LPS control) at 1 µM in test [2] worked out at 101%. In test [3], the IC50 was over 100 µM. Further, the NO production (% of LPS control) at 10 µM in test [4] came out at 97.4%. In addition, the NO production (% of LPS control) at 30 µM in test [5] stood at 78.9%.

Take `CO[C@@H]1C[C@]2(C)OC(=O)[C@]3(COC(=O)c4ccccc4)[C@@H]1C[C@@]23O[C@@H]1O[C@H](CO)[C@@H](O)[C@H](O)[C@H]1O`: in test [1], the NO production (% of LPS control) at 3 µM worked out at 91.6%. Further, the NO production (% of LPS control) at 1 µM in test [2] came out at 91.5%. Also, in test [3], the IC50 is over 100 µM. For the same compound, the NO production (% of LPS control) at 10 µM in test [4] was found to be 95.5%. In test [5], the NO production (% of LPS control) at 30 µM was determined as 102%.

With `COc1cc(/C=C/C(=O)CC(=O)/C=C/c2ccc(O)c(OC)c2)ccc1O` [CURCUMIN], the NO production (% of LPS control) at 3 µM in test [1] worked out at 75.6%. In test [2], the NO production (% of LPS control) at 1 µM worked out at 86.6%. Further, in test [3], the IC50 amounted to 13.5 µM. Moreover, the NO production (% of LPS control) at 10 µM in test [4] amounted to 56.1%. In addition, the NO production (% of LPS control) at 30 µM in test [5] is 35.2%.

In the case of `CC12CC3OC4O[C@H](CO)[C@@H](O)[C@H](O)[C@H]4OC34CC1C4(COC(=O)c1ccccc1)C(=O)O2` (stereo not given in full) [LACTIFLORIN], the NO production (% of LPS control) at 3 µM in test [1] worked out at 91.5%. Moreover, the NO production (% of LPS control) at 1 µM in test [2] was found to be 89.4%. In test [3], the half-maximal inhibitory concentration (IC50) is over 100 µM. For the same compound, the NO production (% of LPS control) at 10 µM in test [4] turned out to be 86.7%. The NO production (% of LPS control) at 30 µM in test [5] came to 81.2%.

`C[C@@]12C[C@@]3(O)O[C@@H](O1)[C@]1(COC(=O)c4ccc(O)cc4)[C@@H]3C[C@]12O[C@@H]1O[C@H](COC(=O)c2ccccc2)[C@@H](O)[C@H](O)[C@H]1O` [MUDANPIOSIDE C]: the NO production (% of LPS control) at 3 µM in test [1] came to 66.7%. Moreover, in test [2], the NO production (% of LPS control) at 1 µM stood at 71.8%. For the same compound, in test [3], the IC50 is 12.8 µM. Also, the NO production (% of LPS control) at 10 µM in test [4] came out at 57.5%. Moreover, the NO production (% of LPS control) at 30 µM in test [5] was found to be 38.5%.

Take `COc1cc(C(=O)OC[C@H]2O[C@@H](O[C@@]34C[C@H]5[C@@]3(CO)[C@H]3O[C@]5(O)C[C@]4(C)O3)[C@H](O)[C@@H](O)[C@@H]2O)ccc1O` [MUDANPIOSIDE E]: in test [1], the NO production (% of LPS control) at 3 µM is 83.9%. For the same compound, the NO production (% of LPS control) at 1 µM in test [2] worked out at 86.2%. The IC50 in test [3] is over 100 µM. The NO production (% of LPS control) at 10 µM in test [4] turned out to be 80.9%. The NO production (% of LPS control) at 30 µM in test [5] turned out to be 67.4%.

With `C[C@@]12C[C@@]3(O)O[C@@H](O1)[C@]1(COC(=O)c4ccc(O)cc4)[C@@H]3C[C@]12O[C@@H]1O[C@H](CO)[C@@H](O)[C@H](O)[C@H]1O` [OXYPAEONIFLORIN], the NO production (% of LPS control) at 3 µM in test [1] came out at 83%. In addition, in test [2], the NO production (% of LPS control) at 1 µM amounted to 71.7%. In test [3], the IC50 was over 100 µM. The NO production (% of LPS control) at 10 µM in test [4] worked out at 76.6%. Besides, the NO production (% of LPS control) at 30 µM in test [5] turned out to be 76.6%.

As to `CO[C@H]1O[C@@]2(C)CC(=O)[C@H]3C[C@]2(O)[C@]13COC(=O)c1ccccc1` [PAEONIDANGENIN], the NO production (% of LPS control) at 3 µM in test [1] stood at 91.5%. The NO production (% of LPS control) at 1 µM in test [2] came to 89.9%. Also, in test [3], the IC50 is over 100 µM. For the same compound, the NO production (% of LPS control) at 10 µM in test [4] was 85%. In test [5], the NO production (% of LPS control) at 30 µM turned out to be 66.2%.

Consider `CO[C@H]1O[C@@]2(C)CC(=O)[C@H]3C[C@]2(O[C@@H]2O[C@H](COC(=O)c4ccccc4)[C@@H](O)[C@H](O)[C@H]2O)[C@]13COC(=O)c1ccccc1` [PAEONIDANIN A], for which the NO production (% of LPS control) at 3 µM in test [1] came out at 74.9%. For the same compound, in test [2], the NO production (% of LPS control) at 1 µM was 86.6%. For the same compound, the IC50 in test [3] turned out to be 36.2 µM. In test [4], the NO production (% of LPS control) at 10 µM stood at 59.1%. Also, the NO production (% of LPS control) at 30 µM in test [5] came out at 57.2%.

Consider `CO[C@H]1O[C@@]2(C)CC(=O)[C@H]3C[C@]2(O[C@@H]2O[C@H](COC(=O)c4cc(O)c(O)c(O)c4)[C@@H](O)[C@H](O)[C@H]2O)[C@]13COC(=O)c1ccccc1` [PAEONIDANIN B], for which the NO production (% of LPS control) at 3 µM in test [1] came to 64.1%. The NO production (% of LPS control) at 1 µM in test [2] worked out at 63%. Moreover, the IC50 in test [3] amounted to 13.9 µM. In addition, the NO production (% of LPS control) at 10 µM in test [4] was found to be 52.2%. The NO production (% of LPS control) at 30 µM in test [5] was found to be 43.5%.

Regarding `CO[C@H]1O[C@@]2(C)CC(=O)[C@H]3C[C@]2(O[C@@H]2O[C@H](COC(=O)c4ccccc4)[C@@H](O)[C@H](O)[C@H]2O)[C@]13COC(=O)c1ccc(O)cc1` [PAEONIDANIN C], the NO production (% of LPS control) at 3 µM in test [1] came out at 111%. Further, the NO production (% of LPS control) at 1 µM in test [2] was 106%. Further, the IC50 in test [3] was over 100 µM. Further, the NO production (% of LPS control) at 10 µM in test [4] worked out at 94.3%. In test [5], the NO production (% of LPS control) at 30 µM is 80.3%.
